Assay results taken from patent US20190025313A1, “TREATMENT OF TUMORS INCORPORATING MUTANT ISOCITRATE DEHYDROGENASE” (Agios Pharmaceuticals, Inc., priority 2015, published 2019).
pIC50: −log10 of the molar value.

What was measured:
Format in all cases: cell-based
[1] = tested on: TF1 cells; test: Metabolic activity (ATP fold-change) in methotrexate treated TF1 cells; settings: FIG. 3
From the text: Metabolic activity was rescued in mIDH1 and mIDH2 TF1 cells with 3-day folinic acid supplement.

[2] = tested on: mIDH2 TF1 cells; test: Metabolic activity (ATP fold-change) and rescue in mIDH2 TF1 cells; settings: for drop in metabolic activity / rescue of brequinar-induced drop in metabolic activity: Brequinar 2 μM; for drop in metabolic activity: ATP fold-change day 3 over day 0
Method: (§1) TF1-pLVX (wildtype) cells were pLVX plated at 20 k/ml, 90 μl/well while TF1/R132H27 (mIDH1) and TF1/R140Q11 (mIDH2) cells were plated at 80 k/ml, 90 μl/well in RPMI, 10% FBS, G418 and GM-CSF. Test compound was added on day 0 and CellTiter-Glo, assay (Promega) was performed on day 3/4 and 7. Medium was not changed during 7-day culture.
(§2) Data was expressed as ATP fold-change: day 3 over day 0.

[3] = tested on: TF1/R132H27 (mIDH1) cells; test: Proliferation assay (CellTiter-Glo) of mutant IDH1 TF1 cells; settings: Homo sapiens, TF-1, mutant IDH1 (R132H) TF1 cells, read-out: IC50, inhibition of proliferation
Method: (§3) Proliferation Assay of Wild Type and Mutant IDH Cell Lines
as §1

[4] = tested on: TF1/R140Q11 (mIDH2) cells; test: Proliferation assay (CellTiter-Glo) of mutant IDH2 TF1 cells; settings: Homo sapiens, TF-1, mutant IDH2 (R140Q) TF1 cells, read-out: IC50, inhibition of proliferation
Method: as §3, §1

[5] = tested on: TF1 cells; test: Proliferation assay, cell line not specified (IC90 at day 7); settings: Homo sapiens, TF-1, 168 h, cell line not stated
Method: as §1, §2

[6] = tested on: mIDH1 TF1 cells; test: Metabolic activity (ATP fold-change) and rescue in mIDH1 TF1 cells; settings: for drop in metabolic activity / rescue of brequinar-induced drop in metabolic activity: Brequinar 2 μM; for drop in metabolic activity: ATP fold-change day 3 over day 0
Method: as §1, §2

[7] = uridine 8 μM, 3-day supplement, FIG. 2A
[8] = 3-day folinic acid supplement, methotrexate treated, FIG. 3

## CN(Cc1cnc2nc(N)nc(N)c2n1)c1ccc(C(=O)N[C@@H](CCC(=O)O)C(=O)O)cc1 [methotrexate]
[1]
  metabolic activity expressed as ATP fold-change (day 3 over day 0): drop in metabolic activity

## Cc1c(-c2ccc(-c3ccccc3F)cc2)nc2ccc(F)cc2c1C(=O)O [Brequinar, brequinar]
[2]; FIG. 2A
  drop in metabolic activity: 52%
[2]; FIG. 2B
  drop in metabolic activity: 47%
[3]
  pIC50: 5.89
[4]
  pIC50: 5.80
[5]
  IC90: ~2000 nM
[6]; FIG. 2A
  drop in metabolic activity: 73%
[6]; FIG. 2B
  drop in metabolic activity: 77%

## O=c1ccn([C@@H]2O[C@H](CO)[C@@H](O)[C@H]2O)c(=O)[nH]1 [uridine]
[2]; [7]
  rescue of brequinar-induced drop in metabolic activity: rescued
[2]; uridine 1,000 μM, FIG. 2B
  rescue of brequinar-induced drop in metabolic activity: rescued
[6]; [7]
  rescue of brequinar-induced drop in metabolic activity: rescued
[6]; uridine 1,000 μM, FIG. 2B
  rescue of brequinar-induced drop in metabolic activity: rescued

## Nc1nc(=O)c2c([nH]1)NCC(CNc1ccc(C(=O)N[C@@H](CCC(=O)O)C(=O)O)cc1)N2C=O (mixture of isomers) [folinic acid]
[2]; [8]
  rescue of methotrexate-induced drop in metabolic activity: rescued
[6]; [8]
  rescue of methotrexate-induced drop in metabolic activity: rescued
